Test results as given in ChEMBL document CHEMBL1138128, “Phenolic P2/P3 core motif as thrombin inhibitors--design, synthesis, and X-ray co-crystal structure” (Bioorg Med Chem Lett, 2006).

How the values were obtained:
Prothrombin = Prothrombin (Homo sapiens, UniProt P00734); assay: Inhibitory activity against thrombin
Trypsin = Trypsin (Homo sapiens, UniProt P07477+P07478+P35030); assay: Inhibitory activity against trypsin; assay type: protein assay

SMILES | IC50 (Prothrombin) [nM] | IC50 (Trypsin) [nM]
Cc1ccc(S(=O)(=O)Nc2ccc(C)c(CC(=O)NCc3nccc(C)c3F)c2O)cc1Cl | 20000 | > 44000
Cc1ccnc(CNC(=O)Cc2c(C)ccc(NS(=O)(=O)c3cccc(Cl)c3)c2O)c1F | 14000 | > 44000
Cc1ccc(NCC(=O)c2ccccc2)c(O)c1CC(=O)NCc1ccc(C(=N)N)cc1.Cl | 4700 | 4000
Cc1ccc(S(=O)(=O)Nc2ccc(C)c(CC(=O)NCc3ccc(N)nc3C)c2O)cc1F.Cl | 590 | > 44000
Cc1ccc(NS(=O)(=O)c2cccc3ccccc23)c(O)c1CC(=O)NCc1ccc(C(=N)N)cc1.Cl |  | 1100
Cc1ccc(NCS(=O)(=O)c2ccccc2)c(O)c1CC(=O)NCc1ccc(N)nc1C.Cl | 570 | > 44000
Cc1ccc(NS(=O)(=O)c2cc(Cl)ccc2Cl)c(O)c1CC(=O)NCc1ccnc(N)c1.Cl | 1000 | > 44000
Cc1ccnc(CNC(=O)Cc2c(C)ccc(NCS(=O)(=O)c3cccc(Cl)c3)c2O)c1F | 15000 | > 44000
Cc1ccc(NS(=O)(=O)c2ccccc2Cl)c(O)c1CC(=O)NCc1ccnc(N)c1.Cl | 3000 | > 44000
Cc1ccc(NCNC(=O)c2ccccc2)c(O)c1CC(=O)NCc1ccc(C(=N)N)cc1.Cl | 2400 | 2700
COc1cccc(S(=O)(=O)Nc2ccc(C)c(CC(=O)NCc3ccc(C(=N)N)cc3)c2O)c1.Cl | 16 | 280

Further compounds by falling IC50 (Prothrombin), results first:

IC50 (Prothrombin) [nM] | IC50 (Trypsin) [nM] | SMILES
260 | > 44000 | Cc1ccccc1S(=O)(=O)Nc1ccc(C)c(CC(=O)NCc2ccc(N)nc2C)c1O.Cl
250 | 1100 | Cc1ccc(S(=O)(=O)Nc2ccc(C)c(CC(=O)NCc3ccc(C(=N)N)cc3)c2O)cc1.Cl
190 | 3100 | Cc1ccc(NCS(=O)(=O)c2ccccc2)c(O)c1CC(=O)NCc1ccc(C(=N)N)cc1.Cl
190 | > 44000 | Cc1ccc(NS(=O)(=O)c2cccc(Cl)c2C)c(O)c1CC(=O)NCc1ccc(N)nc1C.Cl
130 | 940 | Cc1ccc(NS(=O)(=O)c2ccc(Cl)cc2)c(O)c1CC(=O)NCc1ccc(C(=N)N)cc1.Cl
120 | 2800 | Cc1ccc(NS(=O)(=O)c2cccc(C(F)(F)F)c2)c(O)c1CC(=O)NCc1ccc(C(=N)N)cc1.Cl
97 | 600 | Cc1ccc(NS(=O)(=O)c2ccccc2)c(O)c1CC(=O)NCc1ccc(C(=N)N)cc1.Cl
82 | 680 | Cc1ccc(NS(=O)(=O)c2ccc(Cl)cc2F)c(O)c1CC(=O)NCc1ccc(C(=N)N)cc1.Cl
50 | 910 | COc1ccc(S(=O)(=O)Nc2ccc(C)c(CC(=O)NCc3ccc(C(=N)N)cc3)c2O)cc1.Cl
39 | 340 | COc1ccc(S(=O)(=O)Nc2ccc(C)c(CC(=O)NCc3ccc(C(=N)N)cc3)c2O)cc1OC.Cl
25 | 110 | Cc1ccc(C)c(S(=O)(=O)Nc2ccc(C)c(CC(=O)NCc3ccc(C(=N)N)cc3)c2O)c1.Cl
